Several values for one entry are separate records, joined by “and”; a condition that tells them apart may be missing. Identical values can stand only once.
What was measured:
[1] = tested on: 3T3-L1 cells (adipocytes); experiment: Intracellular retention property in 3T3-L1 cells; format: cell-based
Protocol: Using a fluorescence microscope (IX71, manufactured by Olympus Corporation), fluorescence imaging images of cells were acquired over time, and the photostability (It/I0) and the retention property were measured.
For evaluation of the intracellular retention property of each reagent, each fluorescent reagent was added to 3T3-L1 cells (adipocytes) to a final concentration of 100 nM (for Lipi-Green, 500 nM), and imaging images were acquired after 30 minutes of culture and 24 hours after washing away of the reagent.

HeLa cells = experiment: Cytotoxicity with cell growth-cytotoxicity measurement kit CCK-8; format: cell-based; details: 0.1, 0.5, 1, 10, 20, 40 or 50 μM, 24 hours
Protocol: Further, HeLa cells were plated on a 96-well plate, and allowed to adhere to a glass surface. Thereafter, PC6S was added to the medium (to a final concentration of 0.1, 0.5, 1, 10, 20, 40, or 50 μM), and culture was performed for 24 hours. After washing, cytotoxicity was evaluated using a cell growth-cytotoxicity measurement kit CCK-8. Two hours after the addition of the reagent, the absorbance was measured.

[2] = tested on: lipid droplets in HeLa cells; experiment: Fluorescence imaging of lipid droplets in oleic acid-treated HeLa cells; format: cell-based
Text: Since LipiDye requires use of an excitation wavelength of about 405 nm, there is a concern about phototoxicity to cells in cases of long observation.

[3] = Measurement of maximum absorption wavelength, maximum fluorescence wavelength and fluorescence quantum yield in solvents; format: physicochemical
Protocol: Using a luminescent quantum yield measurement apparatus ([…]-01, manufactured by Hamamatsu Photonics K.K.), the maximum absorption wavelength (λabs/nm), the maximum fluorescence wavelength (λflu/nm), and the fluorescence quantum yield (Φf) of the compound in each solvent were measured. The absorption spectrum was measured using an ultraviolet and visible spectrophotometer (Ubest-550, manufactured by JASCO Corporation), and the fluorescence emission spectrum was measured using a fluorescence spectrophotometer (F-7000, manufactured by Hitachi, Ltd.)

[4] = Measurement of fluorescence lifetime in solvents; format: physicochemical
Protocol: The fluorescence lifetime (τf) of each compound in each solvent was measured using a compact fluorescence lifetime measurement apparatus (Quntaurus-Tau, manufactured by Hamamatsu Photonics K.K.).

[5] = tested on: adipose tissue and lipid droplets; experiment: Fluorescence imaging of adipose tissues and lipid droplets in a mouse; format: in vivo, mouse (BALB/cAJcl); details: 50 nmol
Protocol: (§1) Fluorescence imaging of lipid droplets in a body tissue, and of an adipose tissue, using PC6S is described below. […] Therefore, PC6S cannot be administered to mice. In view of this, 5 mM stock solution was added (at 10% in terms of the volume ratio) to physiological saline supplemented with 10% bovine serum albumin. […] Regarding administration of MNs-NB, a stock solution in DMSO is directly administered to mice. Since administration of DMSO may cause death of mice from shock, the administration method in the present invention is thought to be a safer method. Here, 100 to 200 μL of 500 μM solution (50 to 100 nmol) was administered to the tail vein of a mouse under anesthesia, and a fluorescence imaging experiment was carried out using a confocal laser microscope (excitation wavelength, 488 nm; monitoring wavelength, 510 to 560 nm). In the present experiment, a microscope capable of acquiring fluorescence lifetime images as well as fluorescence intensity images (FLIM: fluorescence lifetime imaging microscope) (Simple-Tau-150-DX; Becker & Hickl) was used. The animal experiment was carried out in accordance with the animal experiment safety regulations in Gunma University.
In an individual, various adipose tissues and lipid droplets are present. Their imaging was carried out using PC6S. […]

[6] = tested on: lipid droplets in a body tissue and adipose tissue; experiment: Non-laparotomic imaging of lipid droplets in a fatty-liver model nude mouse; format: in vivo; details: 50 nmol, tail vein
Protocol: Non-laparotomic imaging of lipid droplets in a body tissue, and of an adipose tissue, using PC6S is described below. A nude mouse was fed with a high-fat diet for 2 weeks to prepare a fatty-liver model mouse. PC6S (50 nmol) was administered from the tail vein of the nude mouse under anesthesia. Images were taken using a simple in vivo imaging device (Discovery (registered trademark); INDEC BioSystem) (for the nude mice lying on its back). An excitation wavelength of 450 to 490 nm and a monitoring wavelength of 520 nm or higher were employed. […] In order to confirm that the fluorescence was found from the liver, an image was taken after laparotomy. […] It was thus shown that the fluorescence imaging reagent of the present invention is useful even without laparotomy.

[7] = Solubility / precipitation in water (physiological saline); format: physicochemical
[8] = tested on: lipid droplets in the liver; experiment: Fluorescence intensity and lifetime imaging of liver lipid droplets in normal and fatty-liver model mice; format: in vivo, mice (C57BL/6J)
Protocol: as §1
Fatty-liver model mice are known to have a liver containing a larger amount of lipid droplets accumulated therein compared to normal mice. Here, fatty-liver model mice were prepared by feeding mice (C57BL/6J) with an ultra-high-fat, choline-deficient, methionine-reduced diet for 2 weeks or 10 weeks. […] Furthermore, in the mouse fed with the fatty diet for 10 weeks, intense fluorescence was found from structures having shapes different from those of lipid droplets, in addition to the fluorescence from lipid droplets. This is thought to be autofluorescence due to infiltration of macrophage-derived cells caused by liver fibrosis.

SMILES: CCN(CC)c1ccc2cc3cc(-c4nc5ccccc5s4)c(=O)oc3cc2c1 [PC6S, 3-(Benzo[d]thiazol-2-yl)-8-(diethylamino)-2H-benzo[g]chromen-2-one]
- intracellular retention property ([1]; 100 nM (Lipi-Green 500 nM), 3T3-L1 cells, 24 hours after washing away of the reagent): high intracellular retention properties
- intracellular retention property ([1]; summary grade, Table 3): ⊚
- cytotoxicity (HeLa cells): no remarkable cytotoxicity was found at any concentration
- imaging of lipid droplets / lipid droplet selectivity in HeLa cells ([2]; 100 nM reagent, 30 minutes, 400 μM oleic acid 48 hours): capable of clear imaging of lipid droplets
- fluorescence intensity of HeLa cells ([2]; 100 nM reagent, 30 minutes, compared with BODIPY493/503 or Lipi Green): higher fluorescence intensities
- Brightness in cells ([2]; summary grade, Table 3): ⊚
- Selectivity for lipid droplets ([2]; summary grade, Table 3): ◯
- Φf (fluorescence quantum yield) ([3]; in Bu2O (dibutyl ether)): 0.88
- λmax abs (maximum absorption wavelength) ([3]; in Bu2O (dibutyl ether)): 468 nm
- λmax flu (maximum fluorescence wavelength) ([3]; in Bu2O (dibutyl ether)): 538 nm
- Φf (fluorescence quantum yield) ([3]; in DMSO): 0.83
- λmax abs (maximum absorption wavelength) ([3]; in DMSO): 504 nm
- λmax flu (maximum fluorescence wavelength) ([3]; in DMSO): 642 nm
- Φf (fluorescence quantum yield) ([3]; in EtOAc): 0.84
- λmax abs (maximum absorption wavelength) ([3]; in EtOAc): 483 nm
- λmax flu (maximum fluorescence wavelength) ([3]; in EtOAc): 585 nm
- Φf (fluorescence quantum yield) ([3]; in MeCN): 0.80
- λmax abs (maximum absorption wavelength) ([3]; in MeCN): 492 nm and 493 nm
- λmax flu (maximum fluorescence wavelength) ([3]; in MeCN): 625 nm
- fluorescence quantum yield ([3]; in any of the solvents of Table 1): not less than 0.8
- Φf (fluorescence quantum yield) ([3]; in n-Hexane): 0.89
- λmax abs (maximum absorption wavelength) ([3]; in n-Hexane): 455 nm
- λmax flu (maximum fluorescence wavelength) ([3]; in n-Hexane): 498 nm
- τf (fluorescence lifetime) ([4]; in Bu2O (dibutyl ether)): 2.91 ns
- τf (fluorescence lifetime) ([4]; in DMSO): 3.46 ns
- τf (fluorescence lifetime) ([4]; in EtOAc): 3.41 ns
- τf (fluorescence lifetime) ([4]; in MeCN): 3.72 ns
- τf (fluorescence lifetime) ([4]; in n-Hexane): 2.55 ns
- fluorescence imaging of kidney [5]: small lipid droplets distributed in tubular cells could be imaged
- fluorescence imaging of subcutaneous, abdominal, pericardial adipose tissue, skeletal muscle, cardiac muscle, kidney [5]: Fluorescence derived from PC6S was found from sites containing lipid accumulated therein
- laparotomic imaging ([6]; after laparotomy): Fluorescence derived from PC6S was found in the liver
- non-laparotomic imaging ([6]; without laparotomy): Fluorescence derived from PC6S was found around the liver
- solubility in water (physiological saline) [7]: remarkably low solubility
- precipitation ([7]; 5 mM stock solution added at 10% volume ratio to physiological saline supplemented with 10% bovine serum albumin): precipitation of PC6S could be suppressed
- precipitation ([7]; 5 mM stock solution in DMSO added at 10% volume ratio to physiological saline): precipitation of PC6S occurs
- lipid droplet imaging of liver surface ([8]; 100 nmol, tail vein, fatty-liver model mouse (Week 2)): large lipid droplets were imaged over the entire liver surface
- lipid droplet imaging of liver surface ([8]; 100 nmol, tail vein, mouse fed with a normal diet): small lipid droplets could be found in hepatocytes
- fluorescence lifetime imaging of liver surface ([8]; 100 nmol, tail vein, mouse fed with the fatty diet for 10 weeks): capable of distinguishing between the autofluorescence (blue) and the PC6S fluorescence (orange)
- Imaging of lipid dropletts in a tissue ([8]; summary grade, Table 3): ⊚
